Results on 34 molecules are retold here after patent publication US12415794B2 (Edgewise Therapeutics, Inc., priority 2018, dated 2025).

For assay [1], the target named is T1, cardiac myofibrils (myosin ATPase).
T1 construct: frozen myofibril pellets obtained from cardiac tissue; from tissue
Description: Cardiac Myofibril ATPase Assay (counter screen). The class given is biochemical. As to conditions: myofibrils 1.0 mg/mL, KCl omitted. Summed up:
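Frozen cardiac myofibrils at 1.0 mg/mL final, KCl omitted, in a PK-LDH coupled ATPase assay; ADP production tracked as NADH loss by absorbance at 340 nm. Inhibition taken as reduced rate relative to vehicle controls, with IC50 derived.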
(In general: The purpose of a counterscreen is to sort out artefacts and off-target activity.)

The target in assay [2] is skeletal myofibrils (myosin ATPase). Description: Skeletal Myofibril ATPase Assay. Type of assay: biochemical. Summed up:
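Skeletal myofibril ATPase measured by PK-LDH coupled NADH depletion, absorbance 340 nm read every 1.5-2 min over 45 min. Max−min rate normalized to 1% DMSO vehicle as 100%; IC50 from four-parameter logistic fit with bottom ≥0. Cardiac myofibrils used as counter-screen.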

Some results are limits rather than exact numbers.

T1 sequence (P12883 whole entry): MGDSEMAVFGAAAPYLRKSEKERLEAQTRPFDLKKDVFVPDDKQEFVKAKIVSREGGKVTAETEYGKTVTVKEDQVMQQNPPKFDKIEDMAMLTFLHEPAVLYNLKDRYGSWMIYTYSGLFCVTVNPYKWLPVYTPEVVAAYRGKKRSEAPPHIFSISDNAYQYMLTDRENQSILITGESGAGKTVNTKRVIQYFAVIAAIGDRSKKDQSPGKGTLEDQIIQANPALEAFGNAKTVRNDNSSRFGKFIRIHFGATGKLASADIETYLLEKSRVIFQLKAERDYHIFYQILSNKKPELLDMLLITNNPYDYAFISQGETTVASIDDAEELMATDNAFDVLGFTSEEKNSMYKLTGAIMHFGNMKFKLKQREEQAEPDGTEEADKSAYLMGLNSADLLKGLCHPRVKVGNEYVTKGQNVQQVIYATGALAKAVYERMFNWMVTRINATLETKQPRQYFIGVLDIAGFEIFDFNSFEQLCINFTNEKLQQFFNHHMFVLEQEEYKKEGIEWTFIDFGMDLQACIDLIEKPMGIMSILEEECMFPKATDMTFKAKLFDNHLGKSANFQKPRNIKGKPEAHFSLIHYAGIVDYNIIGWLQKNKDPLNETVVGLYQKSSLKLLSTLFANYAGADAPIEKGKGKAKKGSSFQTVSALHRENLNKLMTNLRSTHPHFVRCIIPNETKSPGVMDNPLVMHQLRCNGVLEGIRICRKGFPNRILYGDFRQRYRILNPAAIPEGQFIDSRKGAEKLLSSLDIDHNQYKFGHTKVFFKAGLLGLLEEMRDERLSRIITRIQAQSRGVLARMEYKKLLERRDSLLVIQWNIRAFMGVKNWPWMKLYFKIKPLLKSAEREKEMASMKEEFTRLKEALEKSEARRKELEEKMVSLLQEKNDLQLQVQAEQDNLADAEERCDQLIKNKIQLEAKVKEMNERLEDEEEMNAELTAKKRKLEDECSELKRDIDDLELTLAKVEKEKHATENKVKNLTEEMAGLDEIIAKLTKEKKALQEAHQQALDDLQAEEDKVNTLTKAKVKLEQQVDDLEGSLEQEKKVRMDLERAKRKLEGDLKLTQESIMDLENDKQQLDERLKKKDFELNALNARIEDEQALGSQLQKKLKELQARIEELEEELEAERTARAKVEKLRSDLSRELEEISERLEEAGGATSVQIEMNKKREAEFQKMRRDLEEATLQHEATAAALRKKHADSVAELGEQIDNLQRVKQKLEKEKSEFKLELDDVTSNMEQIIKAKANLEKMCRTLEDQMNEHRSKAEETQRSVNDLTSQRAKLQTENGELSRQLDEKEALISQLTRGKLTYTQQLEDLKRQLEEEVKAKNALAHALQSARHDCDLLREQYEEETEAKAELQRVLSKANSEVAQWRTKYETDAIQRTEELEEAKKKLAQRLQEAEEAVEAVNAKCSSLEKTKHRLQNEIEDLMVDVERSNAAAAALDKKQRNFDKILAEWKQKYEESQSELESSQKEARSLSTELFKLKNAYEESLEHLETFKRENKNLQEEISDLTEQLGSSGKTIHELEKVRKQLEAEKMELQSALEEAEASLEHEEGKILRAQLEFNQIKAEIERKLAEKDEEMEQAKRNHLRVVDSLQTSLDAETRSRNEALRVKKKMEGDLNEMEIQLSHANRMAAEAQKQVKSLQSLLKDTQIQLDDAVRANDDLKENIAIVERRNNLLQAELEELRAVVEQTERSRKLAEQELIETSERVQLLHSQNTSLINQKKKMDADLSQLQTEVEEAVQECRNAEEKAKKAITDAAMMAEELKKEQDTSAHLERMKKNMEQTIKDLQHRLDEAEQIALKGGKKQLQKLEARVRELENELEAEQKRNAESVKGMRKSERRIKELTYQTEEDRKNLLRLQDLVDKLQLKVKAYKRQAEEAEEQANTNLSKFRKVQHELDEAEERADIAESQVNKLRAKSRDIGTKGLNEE
T1 sequence (P08590 whole entry partner): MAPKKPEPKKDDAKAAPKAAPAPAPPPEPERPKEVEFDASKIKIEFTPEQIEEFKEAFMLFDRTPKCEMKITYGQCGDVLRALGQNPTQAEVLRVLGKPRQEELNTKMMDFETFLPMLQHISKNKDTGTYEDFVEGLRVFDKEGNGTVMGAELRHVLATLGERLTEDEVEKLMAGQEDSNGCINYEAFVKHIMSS
T1 sequence (P10916 whole entry partner): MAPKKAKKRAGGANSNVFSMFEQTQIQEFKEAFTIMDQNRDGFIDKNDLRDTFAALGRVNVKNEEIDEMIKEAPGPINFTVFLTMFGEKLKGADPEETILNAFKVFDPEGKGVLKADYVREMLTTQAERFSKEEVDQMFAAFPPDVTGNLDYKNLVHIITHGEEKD

For the molecule `COc1ccc(-c2ccc(=O)n(CC(=O)NCc3ccccc3Cl)n2)cc1` [IIIb-1, N-(2-chlorobenzyl)-2-(3-(4-methoxyphenyl)-6-oxopyridazin-1(6H)-yl)acetamide], the IC50 in assay [1] (Table 5C) was over 100 µM; in assay [2] (Table 4C), under 10 µM.

In the case of `O=C(Cn1nc(-c2ccc(F)cc2)ccc1=O)NCCc1c[nH]c2ccccc12` [IIIc-44, N-(2-(1H-indol-3-yl)ethyl)-2-(3-(4-fluorophenyl)-6-oxopyridazin-1(6H)-yl)acetamide], the IC50 in assay [1] (Table 5C) is over 100 µM; in assay [2] (Table 4C), 10 to 100 µM.

`CC(CCNC(=O)Cn1nc(-c2ccccc2)ccc1=O)c1ccccc1` (centres unmarked) [IIIc-53, 2-(6-oxo-3-phenylpyridazin-1(6H)-yl)-N-(3-phenylbutyl)acetamide]: the IC50 was over 100 µM in assay [1] (Table 5C) and 10 to 100 µM in assay [2] (Table 4C).

Turning to `Cc1ccc(-c2ccc(=O)n(CC(=O)NC3CCCC3)n2)cc1` [IIIc-5, N-cyclopentyl-2-(6-oxo-3-(p-tolyl)pyridazin-1(6H)-yl)acetamide], the IC50 in assay [1] (Table 5C) is over 100 µM; in assay [2] (Table 4C) it was 10 to 100 µM.

As for `COc1ccc(-c2ccc(=O)n(CC(=O)Nc3ccc4c(c3)OCO4)n2)cc1` [IIIb-28, N-(benzo[d][1,3]dioxol-5-yl)-2-(3-(4-methoxyphenyl)-6-oxopyridazin-1(6H)-yl)acetamide], the IC50 is over 100 µM in assay [1] (Table 5C) and 10 to 100 µM in assay [2] (Table 4C).

Turning to `COc1ccc(-c2ccc(=O)n(CC(=O)NC(C)c3ccccc3Cl)n2)cc1` (centres unmarked) [IIIa-25, N-(1-(2-chlorophenyl)ethyl)-2-(3-(4-methoxyphenyl)-6-oxopyridazin-1(6H)-yl)acetamide], the half-inhibitory concentration (IC50) in assay [1] (Table 5C) is over 100 µM; in assay [2] (Table 4C), 10 to 100 µM.

On to `COc1ccc(-c2ccc(=O)n(CC(=O)NCc3ccon3)n2)cc1` [IIIa-26], for which the values for the half-inhibitory concentration (IC50) in assay [1] (Table 5C) and in assay [2] (Table 4C) were over 100 µM and 10 to 100 µM, respectively.

For `O=C(Cn1nc(-c2ccc(Cl)cc2)ccc1=O)Nc1cccc2[nH]ccc12` [IIIc-19, 2-(3-(4-chlorophenyl)-6-oxopyridazin-1(6H)-yl)-N-(1H-indol-4-yl)acetamide], the figures for the half-inhibitory concentration (IC50) in assay [1] (Table 5C) and in assay [2] (Table 4C) were over 100 µM and under 10 µM, respectively.

Consider `COc1ccc(-c2ccc(=O)n(CC(=O)NCc3ccccc3F)n2)cc1` [IIIb-38, N-(2-fluorobenzyl)-2-(3-(4-methoxyphenyl)-6-oxopyridazin-1(6H)-yl)acetamide], for which the half-inhibitory concentration (IC50) in assay [1] (Table 5C) and in assay [2] (Table 4C) was over 100 µM each time.

As to `COc1ccc(-c2ccc(=O)n(CC(=O)NCc3ccco3)n2)cc1` [IIIb-53, N-(furan-2-ylmethyl)-2-(3-(4-methoxyphenyl)-6-oxopyridazin-1(6H)-yl)acetamide], the IC50 in assay [1] (Table 5C) and in assay [2] (Table 4C) was over 100 µM each time.

On to `CCNC(=O)Cn1nc(-c2ccc(N3CC(OC(F)F)C3)nc2)ccc1=O` [Compound I-55, 2-(3-(6-(3-(difluoromethoxy)azetidin-1-yl)pyridin-3-yl)-6-oxopyridazin-1(6H)-yl)-N-ethylacetamide], for which the values for the IC50 in assay [1] (Table 5A) and in assay [2] (Table 4A) were over 100 µM and 10 to 100 µM, respectively.

Turning to `C[C@@H](NC(=O)Cn1nc(-c2ccc3c(c2)OCCCO3)ccc1=O)c1ccc(F)cc1` [IIIb-26, (R)-2-(3-(3,4-dihydro-2H-benzo[b][1,4]dioxepin-7-yl)-6-oxopyridazin-1(6H)-yl)-N-(1-(4-fluorophenyl)ethyl)acetamide], the concentration for half-maximal inhibition (IC50) in assay [1] (Table 5C) is over 100 µM; in assay [2] (Table 4C), 10 to 100 µM.

In the case of `COc1ccc(-c2ccc(=O)n(CC(=O)NCCC3=CCCCC3)n2)cc1` [IIIb-14, N-(2-(cyclohex-1-en-1-yl)ethyl)-2-(3-(4-methoxyphenyl)-6-oxopyridazin-1(6H)-yl)acetamide], the half-maximal inhibitory concentration (IC50) in assay [1] (Table 5C) is over 100 µM; in assay [2] (Table 4C), under 10 µM.

With `CCNC(=O)Cn1nc(-c2ccc(NC34CC(C3)C4)nc2)ccc1=O` [Compound I-36, 2-(3-(6-(bicyclo[1.1.1]pentan-1-ylamino)pyridin-3-yl)-6-oxopyridazin-1(6H)-yl)-N-ethylacetamide], the half-inhibitory concentration (IC50) is over 100 µM in assay [1] (Table 5A) and under 10 µM in assay [2] (Table 4A).

Consider `O=C(Cn1nc(-c2ccccc2)ccc1=O)Nc1cccc2[nH]ccc12` [IIIc-50, N-(1H-indol-4-yl)-2-(6-oxo-3-phenylpyridazin-1(6H)-yl)acetamide], for which the results for the concentration for half-maximal inhibition (IC50) in assay [1] (Table 5C) and in assay [2] (Table 4C) were over 100 µM and 10 to 100 µM, respectively.

Turning to `Cn1nccc1CNC(=O)Cn1nc(-c2ccc(OC(F)F)nc2)ccc1=O` [Compound I-30, 2-(3-(6-(difluoromethoxy)pyridin-3-yl)-6-oxopyridazin-1(6H)-yl)-N-((1-methyl-1H-pyrazol-5-yl)methyl)acetamide], the IC50 in assay [1] (Table 5A) and in assay [2] (Table 4A) was over 100 µM throughout.

As to `O=C(Cn1nc(-c2ccc(OC(F)F)nc2)ccc1=O)NCc1ccccc1Cl` [Compound I-69, N-(2-chlorobenzyl)-2-(3-(6-(difluoromethoxy)pyridin-3-yl)-6-oxopyridazin-1(6H)-yl)acetamide], the figures for the concentration for half-maximal inhibition (IC50) in assay [1] (Table 5A) and in assay [2] (Table 4A) were over 100 µM and under 10 µM, respectively.

As for `CCNC(=O)Cn1nc(-c2ccc(NC3COC3)nc2)ccc1=O` [Compound I-44, N-ethyl-2-(3-(6-(oxetan-3-ylamino)pyridin-3-yl)-6-oxopyridazin-1(6H)-yl)acetamide], the IC50 is over 100 µM in assay [1] (Table 5A) and under 10 µM in assay [2] (Table 4A).

Turning to `COc1ccc(NC(=O)Cn2nc(-c3ccc(F)cc3)ccc2=O)c(OC)c1` [IIIc-31, N-(2,4-dimethoxyphenyl)-2-(3-(4-fluorophenyl)-6-oxopyridazin-1(6H)-yl)acetamide], the IC50 in assay [1] (Table 5C) is over 100 µM; in assay [2] (Table 4C) it was 10 to 100 µM.

With `O=C(Cn1nc(-c2ccc(OC(F)F)nc2)ccc1=O)NC1CC(F)(F)C1` [Compound I-33], the IC50 in assay [1] (Table 5A) and in assay [2] (Table 4A) was over 100 µM throughout.

For `CCNC(=O)Cn1nc(-c2cnc(NC34CC(C3)C4)nc2)ccc1=O` [Compound I-59, 2-(3-(2-(bicyclo[1.1.1]pentan-1-ylamino)pyrimidin-5-yl)-6-oxopyridazin-1(6H)-yl)-N-ethylacetamide], the IC50 in assay [1] (Table 5A) is over 100 µM; in assay [2] (Table 4A) it was under 10 µM.

In the case of `O=C(Cn1nc(-c2ccc(NC3CCC3)nc2)ccc1=O)NC1CCC1` [Compound I-52, N-cyclobutyl-2-(3-(6-(cyclobutylamino)pyridin-3-yl)-6-oxopyridazin-1(6H)-yl)acetamide], the 50% inhibitory concentration (IC50) in assay [1] (Table 5A) was over 100 µM; in assay [2] (Table 4A), under 10 µM.

On to `CC(C)NC(=O)Cn1nc(-c2ccc(Br)cc2)ccc1=O` [IIIc-40, 2-(3-(4-bromophenyl)-6-oxopyridazin-1(6H)-yl)-N-isopropylacetamide], for which the IC50 in assay [1] (Table 5C) is over 100 µM; in assay [2] (Table 4C), 10 to 100 µM.

With `COCCNC(=O)Cn1nc(-c2ccc(OC)cc2)ccc1=O` [IIIb-47, N-(2-methoxyethyl)-2-(3-(4-methoxyphenyl)-6-oxopyridazin-1(6H)-yl)acetamide], the 50% inhibitory concentration (IC50) in assay [1] (Table 5C) and in assay [2] (Table 4C) was over 100 µM each time.

For the molecule `COc1ccc(-c2ccc(=O)n(CC(=O)Nc3ccc4c(c3)OCCO4)n2)cc1` [IIIb-16, N-(2,3-dihydrobenzo[b][1,4]dioxin-6-yl)-2-(3-(4-methoxyphenyl)-6-oxopyridazin-1(6H)-yl)acetamide], the values for the concentration for half-maximal inhibition (IC50) in assay [1] (Table 5C) and in assay [2] (Table 4C) were over 100 µM and under 10 µM, respectively.

On to `COc1ccc(-c2ccc(=O)n(CC(=O)NCc3cc(Cl)ccc3Cl)n2)cc1`, for which the half-inhibitory concentration (IC50) is over 100 µM in assay [1] (Table 5C) and under 10 µM in assay [2] (Table 4C).

Consider `COc1ccc(-c2ccc(=O)n(CC(=O)NC3(c4ccccc4Cl)CC3)n2)cc1` [IIIa-20, N-(1-(2-chlorophenyl)cyclopropyl)-2-(3-(4-methoxyphenyl)-6-oxopyridazin-1(6H)-yl)acetamide], for which the IC50 was over 100 µM in assay [1] (Table 5C) and 10 to 100 µM in assay [2] (Table 4C).

Regarding `CCNC(=O)Cn1nc(-c2ccc(CC(F)(F)F)nc2)ccc1=O` [Compound I-37, N-ethyl-2-(6-oxo-3-(6-(2,2,2-trifluoroethyl)pyridin-3-yl)pyridazin-1(6H)-yl)acetamide], the IC50 in assay [1] (Table 5A) is over 100 µM; in assay [2] (Table 4A), 10 to 100 µM.

As to `CC[C@@H](C)NC(=O)Cn1nc(-c2ccc(OC(F)F)nc2)ccc1=O` [Compound I-66, (R)-N-(sec-butyl)-2-(3-(6-(difluoromethoxy)pyridin-3-yl)-6-oxopyridazin-1(6H)-yl)acetamide], the concentration for half-maximal inhibition (IC50) was over 100 µM in assay [1] (Table 5A) and under 10 µM in assay [2] (Table 4A).

As for `COc1ccc(-c2ccc(=O)n(CC(=O)Nc3cc(OC)ccc3OC)n2)cc1` [IIIb-25, N-(2,5-dimethoxyphenyl)-2-(3-(4-methoxyphenyl)-6-oxopyridazin-1(6H)-yl)acetamide], the figures for the half-inhibitory concentration (IC50) in assay [1] (Table 5C) and in assay [2] (Table 4C) were over 100 µM and 10 to 100 µM, respectively.

As for `CCNC(=O)Cn1nc(-c2ccc(N3CC4(C3)CS(=O)(=O)C4)nc2)ccc1=O` [Compound I-32, 2-(3-(6-(2,2-dioxido-2-thia-6-azaspiro[3.3]heptan-6-yl)pyridin-3-yl)-6-oxopyridazin-1(6H)-yl)-N-ethylacetamide], the IC50 in assay [1] (Table 5A) and in assay [2] (Table 4A) was over 100 µM in each case.

On to `O=C(Cn1nc(-c2ccc(OC(F)F)nc2)ccc1=O)NCc1cccc(Cl)c1` [Compound I-76, N-(3-chlorobenzyl)-2-(3-(6-(difluoromethoxy)pyridin-3-yl)-6-oxopyridazin-1(6H)-yl)acetamide], for which the values for the 50% inhibitory concentration (IC50) in assay [1] (Table 5A) and in assay [2] (Table 4A) were over 100 µM and 10 to 100 µM, respectively.

As to `CCNC(=O)Cn1nc(-c2ccc(OC3CC(F)(F)C3)nc2)ccc1=O` [Compound I-75, 2-(3-(6-(3,3-difluorocyclobutoxy)pyridin-3-yl)-6-oxopyridazin-1(6H)-yl)-N-ethylacetamide], the values for the 50% inhibitory concentration (IC50) in assay [1] (Table 5A) and in assay [2] (Table 4A) were over 100 µM and 10 to 100 µM, respectively.

`CCNC(=O)Cn1nc(-c2ccc(OC(F)F)[n+]([O-])c2)ccc1=O` [Compound I-65, 2-(difluoromethoxy)-5-(1-(2-(ethylamino)-2-oxoethyl)-6-oxo-1,6-dihydropyridazin-3-yl)pyridine 1-oxide]: the IC50 in assay [1] (Table 5A) and in assay [2] (Table 4A) was over 100 µM in each case.

Broadly, the IC50 is the concentration that inhibits the measured activity by half. High values mean weaker potency, low ones greater potency.
